Tests used:
Assay in all cases: biochemical
Assay type in all cases: biochemical
382 unique human kinases [1] = target: T1, 382 unique human kinases (Homo sapiens, UniProt Q15569); settings: TESK1, compound at 10 uM, duplicate values; for remaining activity at 10 µM: read-out: % Enzyme Activity (relative to DMSO controls)
T1 construct: purchased Reaction Biology (HotSpot contract assay)

382 unique human kinases [2] = target: T2, 382 unique human kinases (Homo sapiens, UniProt Q99759); settings: MEKK3, compound at 10 uM, duplicate values; for remaining activity at 10 µM: read-out: % Enzyme Activity (relative to DMSO controls)
T2 construct: purchased Reaction Biology (HotSpot contract assay)
T2 sequence (Q99759 1-626): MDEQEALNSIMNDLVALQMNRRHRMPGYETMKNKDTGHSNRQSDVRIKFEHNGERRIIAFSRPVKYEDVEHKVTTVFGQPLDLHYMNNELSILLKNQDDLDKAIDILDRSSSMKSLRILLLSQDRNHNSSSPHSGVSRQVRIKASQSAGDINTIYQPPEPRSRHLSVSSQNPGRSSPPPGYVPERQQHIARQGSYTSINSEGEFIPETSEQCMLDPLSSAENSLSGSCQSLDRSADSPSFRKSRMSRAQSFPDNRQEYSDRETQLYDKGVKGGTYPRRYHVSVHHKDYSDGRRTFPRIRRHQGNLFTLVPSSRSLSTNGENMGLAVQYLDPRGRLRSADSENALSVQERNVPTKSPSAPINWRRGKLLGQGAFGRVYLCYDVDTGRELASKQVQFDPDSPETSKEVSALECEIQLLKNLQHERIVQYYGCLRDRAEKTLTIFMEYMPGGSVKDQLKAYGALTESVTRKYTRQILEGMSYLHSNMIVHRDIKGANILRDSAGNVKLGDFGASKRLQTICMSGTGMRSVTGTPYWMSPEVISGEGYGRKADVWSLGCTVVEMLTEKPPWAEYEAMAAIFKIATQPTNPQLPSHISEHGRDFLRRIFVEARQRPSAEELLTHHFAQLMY

382 unique human kinases [3] = target: T3, 382 unique human kinases (Homo sapiens, UniProt P21802, E565G); settings: kinase FGFR2 (E565G), compound 10 uM; for remaining activity at 10 µM: read-out: % Enzyme Activity (relative to DMSO controls)
T3 construct: purchased Reaction Biology (HotSpot contract assay)

382 unique human kinases [4] = target: T4, 382 unique human kinases (Homo sapiens, UniProt O96017, I157T); settings: CHK2 (I157T), 10 uM; for remaining activity at 10 µM: read-out: % Enzyme Activity (relative to DMSO controls)
T4 construct: purchased Reaction Biology (HotSpot contract assay)

382 unique human kinases [5] = target: T5, 382 unique human kinases (Homo sapiens, UniProt Q9NRH2); settings: SNRK, 10 uM; for remaining activity at 10 µM: read-out: % Enzyme Activity (relative to DMSO controls)
T5 construct: purchased Reaction Biology (HotSpot contract assay)
T5 sequence (Q9NRH2 1-765): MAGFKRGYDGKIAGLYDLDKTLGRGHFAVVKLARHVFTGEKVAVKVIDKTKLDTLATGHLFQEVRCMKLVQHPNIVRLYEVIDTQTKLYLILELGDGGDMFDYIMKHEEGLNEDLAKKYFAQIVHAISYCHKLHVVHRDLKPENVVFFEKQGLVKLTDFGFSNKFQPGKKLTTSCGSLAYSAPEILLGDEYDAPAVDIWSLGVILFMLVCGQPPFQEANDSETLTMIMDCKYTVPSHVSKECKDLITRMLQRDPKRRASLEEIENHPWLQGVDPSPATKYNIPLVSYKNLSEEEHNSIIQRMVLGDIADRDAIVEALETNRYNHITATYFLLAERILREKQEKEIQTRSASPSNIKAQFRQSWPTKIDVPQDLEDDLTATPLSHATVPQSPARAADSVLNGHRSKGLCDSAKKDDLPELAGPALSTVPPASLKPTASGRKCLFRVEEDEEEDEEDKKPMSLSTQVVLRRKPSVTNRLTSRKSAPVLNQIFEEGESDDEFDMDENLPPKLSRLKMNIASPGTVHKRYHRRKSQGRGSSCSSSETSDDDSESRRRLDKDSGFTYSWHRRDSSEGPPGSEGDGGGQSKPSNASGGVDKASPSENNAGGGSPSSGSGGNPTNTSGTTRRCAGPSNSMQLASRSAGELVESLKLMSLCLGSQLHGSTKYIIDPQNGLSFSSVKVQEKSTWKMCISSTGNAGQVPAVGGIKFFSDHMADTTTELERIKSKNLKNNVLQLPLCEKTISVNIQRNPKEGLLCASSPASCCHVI

382 unique human kinases [6] = target: T6, 382 unique human kinases (Homo sapiens, UniProt P07949); settings: kinase RET, compound 10 uM; for remaining activity at 10 µM: read-out: % Enzyme Activity (relative to DMSO controls)
T6 construct: purchased Reaction Biology (HotSpot contract assay)

382 unique human kinases [7] = target: T7, 382 unique human kinases (Homo sapiens, UniProt P00519, Y253F); settings: ABL1 (Y253F), [ATP] 15 µM, compound 10 uM; for remaining activity at 10 µM: read-out: % Enzyme Activity (relative to DMSO controls)
T7 construct: purchased Reaction Biology (HotSpot contract assay)

382 unique human kinases [8] = target: T8, 382 unique human kinases (Homo sapiens, UniProt P29597); settings: TYK2, [ATP] 15 µM, compound 10 uM; for remaining activity at 10 µM: read-out: % Enzyme Activity (relative to DMSO controls)
T8 construct: purchased Reaction Biology (HotSpot contract assay)

382 unique human kinases [9] = target: T9, 382 unique human kinases (Homo sapiens, UniProt Q9UM73, C1156Y); settings: ALK (C1156Y), [ATP] 5 µM, compound 10 uM; for remaining activity at 10 µM: read-out: % Enzyme Activity (relative to DMSO controls)
T9 construct: purchased Reaction Biology (HotSpot contract assay)

382 unique human kinases [10] = target: T10, 382 unique human kinases (Homo sapiens, UniProt Q16288); settings: TRKC, [ATP] 100 µM
T10 construct: purchased Reaction Biology (HotSpot contract assay)

382 unique human kinases [11] = target: T11, 382 unique human kinases (Homo sapiens, UniProt P51957); settings: NEK4, 10 uM; for remaining activity at 10 µM: read-out: % Enzyme Activity (relative to DMSO controls)
T11 construct: purchased Reaction Biology (HotSpot contract assay)

[12] = compound 10 uM, read-out: % Enzyme Activity (relative to DMSO controls)

T11 sequence (P51957 whole entry): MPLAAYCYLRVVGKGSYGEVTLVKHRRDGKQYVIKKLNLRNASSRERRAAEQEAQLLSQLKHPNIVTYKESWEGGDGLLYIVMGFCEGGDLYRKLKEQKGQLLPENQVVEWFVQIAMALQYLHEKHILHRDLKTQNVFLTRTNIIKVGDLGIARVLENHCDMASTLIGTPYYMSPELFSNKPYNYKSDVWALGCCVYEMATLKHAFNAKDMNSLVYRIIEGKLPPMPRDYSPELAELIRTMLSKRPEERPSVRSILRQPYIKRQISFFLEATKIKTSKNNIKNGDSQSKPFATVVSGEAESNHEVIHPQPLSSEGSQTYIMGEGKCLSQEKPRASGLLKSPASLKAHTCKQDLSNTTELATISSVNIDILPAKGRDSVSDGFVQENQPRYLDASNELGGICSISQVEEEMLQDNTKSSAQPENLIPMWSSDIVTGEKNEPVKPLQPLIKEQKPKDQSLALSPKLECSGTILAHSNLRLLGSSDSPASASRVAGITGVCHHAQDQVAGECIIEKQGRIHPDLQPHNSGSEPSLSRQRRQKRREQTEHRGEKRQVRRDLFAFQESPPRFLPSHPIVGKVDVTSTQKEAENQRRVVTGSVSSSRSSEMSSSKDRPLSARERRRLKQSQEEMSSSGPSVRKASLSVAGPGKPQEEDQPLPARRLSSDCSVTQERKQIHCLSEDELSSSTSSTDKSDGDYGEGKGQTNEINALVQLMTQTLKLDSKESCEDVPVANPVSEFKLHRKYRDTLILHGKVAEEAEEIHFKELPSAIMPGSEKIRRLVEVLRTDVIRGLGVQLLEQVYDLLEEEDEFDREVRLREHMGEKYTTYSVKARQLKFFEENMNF
T9 sequence (Q9UM73 19-1620 C1156Y): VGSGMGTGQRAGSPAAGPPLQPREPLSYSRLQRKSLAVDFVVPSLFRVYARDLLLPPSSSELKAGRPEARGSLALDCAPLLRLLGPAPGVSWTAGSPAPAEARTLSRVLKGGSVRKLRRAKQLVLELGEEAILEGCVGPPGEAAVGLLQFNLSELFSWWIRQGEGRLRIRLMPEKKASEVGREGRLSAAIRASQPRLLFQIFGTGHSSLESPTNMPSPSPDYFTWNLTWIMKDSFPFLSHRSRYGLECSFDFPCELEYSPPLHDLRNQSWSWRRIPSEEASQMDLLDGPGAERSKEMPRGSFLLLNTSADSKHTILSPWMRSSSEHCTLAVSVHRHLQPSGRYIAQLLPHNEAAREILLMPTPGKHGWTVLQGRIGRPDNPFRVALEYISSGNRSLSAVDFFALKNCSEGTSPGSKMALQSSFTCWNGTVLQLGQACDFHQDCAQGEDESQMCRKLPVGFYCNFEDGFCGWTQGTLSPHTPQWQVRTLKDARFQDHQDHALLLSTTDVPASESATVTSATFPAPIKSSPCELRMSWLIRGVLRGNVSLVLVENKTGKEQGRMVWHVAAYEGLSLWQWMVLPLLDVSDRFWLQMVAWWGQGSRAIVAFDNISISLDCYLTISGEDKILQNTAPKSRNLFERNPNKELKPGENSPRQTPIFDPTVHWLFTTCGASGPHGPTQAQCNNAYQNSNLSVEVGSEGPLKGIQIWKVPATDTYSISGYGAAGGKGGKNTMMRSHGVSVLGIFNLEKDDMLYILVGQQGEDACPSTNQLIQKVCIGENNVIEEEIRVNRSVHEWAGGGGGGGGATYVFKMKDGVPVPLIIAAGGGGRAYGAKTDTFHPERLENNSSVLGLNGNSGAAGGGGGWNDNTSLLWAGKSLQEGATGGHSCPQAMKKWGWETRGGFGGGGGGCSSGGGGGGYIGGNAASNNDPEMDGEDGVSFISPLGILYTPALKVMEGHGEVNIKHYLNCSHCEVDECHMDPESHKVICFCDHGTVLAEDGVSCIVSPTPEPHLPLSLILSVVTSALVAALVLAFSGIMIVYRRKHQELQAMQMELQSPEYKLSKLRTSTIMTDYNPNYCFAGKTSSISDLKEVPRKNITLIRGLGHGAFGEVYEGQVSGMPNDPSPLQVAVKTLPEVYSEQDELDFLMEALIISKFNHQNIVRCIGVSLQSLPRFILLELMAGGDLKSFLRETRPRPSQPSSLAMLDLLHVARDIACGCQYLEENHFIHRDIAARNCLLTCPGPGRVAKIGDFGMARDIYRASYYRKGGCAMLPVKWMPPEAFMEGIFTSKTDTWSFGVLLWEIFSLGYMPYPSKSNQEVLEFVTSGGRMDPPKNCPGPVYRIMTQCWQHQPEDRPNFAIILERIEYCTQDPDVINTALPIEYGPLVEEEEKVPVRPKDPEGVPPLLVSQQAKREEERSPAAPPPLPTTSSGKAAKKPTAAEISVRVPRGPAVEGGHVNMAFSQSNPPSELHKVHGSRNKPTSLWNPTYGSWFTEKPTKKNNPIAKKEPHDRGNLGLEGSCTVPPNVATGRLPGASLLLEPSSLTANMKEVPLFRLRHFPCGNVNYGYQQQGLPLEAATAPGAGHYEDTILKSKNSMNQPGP
T10 sequence (Q16288 32-839): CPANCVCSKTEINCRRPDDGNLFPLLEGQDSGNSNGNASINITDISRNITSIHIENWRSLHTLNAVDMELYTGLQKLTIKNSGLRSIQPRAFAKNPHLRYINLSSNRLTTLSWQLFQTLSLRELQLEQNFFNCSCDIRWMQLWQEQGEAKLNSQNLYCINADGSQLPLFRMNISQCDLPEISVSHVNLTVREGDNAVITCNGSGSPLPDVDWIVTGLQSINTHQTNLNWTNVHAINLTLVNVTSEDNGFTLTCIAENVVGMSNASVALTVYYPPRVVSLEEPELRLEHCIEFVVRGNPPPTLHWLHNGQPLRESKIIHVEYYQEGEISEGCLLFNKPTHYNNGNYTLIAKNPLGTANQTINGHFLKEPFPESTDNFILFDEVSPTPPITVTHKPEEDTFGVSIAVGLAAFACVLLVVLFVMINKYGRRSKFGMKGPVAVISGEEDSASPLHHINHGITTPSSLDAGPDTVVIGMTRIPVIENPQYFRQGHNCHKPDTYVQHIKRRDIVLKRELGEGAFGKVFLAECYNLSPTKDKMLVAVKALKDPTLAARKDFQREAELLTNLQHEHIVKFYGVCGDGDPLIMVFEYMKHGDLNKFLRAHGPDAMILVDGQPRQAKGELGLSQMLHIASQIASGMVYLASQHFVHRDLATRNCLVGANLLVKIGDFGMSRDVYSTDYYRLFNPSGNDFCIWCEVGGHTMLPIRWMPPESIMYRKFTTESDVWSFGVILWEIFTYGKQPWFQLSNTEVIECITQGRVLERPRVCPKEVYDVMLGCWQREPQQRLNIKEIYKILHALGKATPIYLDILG
T1 sequence (Q15569 whole entry): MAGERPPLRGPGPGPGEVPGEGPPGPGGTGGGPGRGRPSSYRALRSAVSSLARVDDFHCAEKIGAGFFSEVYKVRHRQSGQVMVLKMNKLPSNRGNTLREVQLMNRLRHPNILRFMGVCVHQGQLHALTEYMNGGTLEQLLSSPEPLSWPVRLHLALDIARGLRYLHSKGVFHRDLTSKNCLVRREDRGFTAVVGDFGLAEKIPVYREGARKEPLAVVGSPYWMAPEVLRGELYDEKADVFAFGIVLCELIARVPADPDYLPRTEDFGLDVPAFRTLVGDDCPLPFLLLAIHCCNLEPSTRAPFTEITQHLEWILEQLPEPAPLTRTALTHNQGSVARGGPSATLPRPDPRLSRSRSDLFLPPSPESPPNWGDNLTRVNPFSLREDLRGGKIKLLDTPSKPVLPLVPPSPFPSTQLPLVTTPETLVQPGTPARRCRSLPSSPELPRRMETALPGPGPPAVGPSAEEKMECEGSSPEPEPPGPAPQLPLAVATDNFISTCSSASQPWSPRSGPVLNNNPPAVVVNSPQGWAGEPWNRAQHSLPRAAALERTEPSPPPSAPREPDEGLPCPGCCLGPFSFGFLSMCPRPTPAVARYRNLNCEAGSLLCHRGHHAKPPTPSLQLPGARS
T8 sequence (P29597 whole entry): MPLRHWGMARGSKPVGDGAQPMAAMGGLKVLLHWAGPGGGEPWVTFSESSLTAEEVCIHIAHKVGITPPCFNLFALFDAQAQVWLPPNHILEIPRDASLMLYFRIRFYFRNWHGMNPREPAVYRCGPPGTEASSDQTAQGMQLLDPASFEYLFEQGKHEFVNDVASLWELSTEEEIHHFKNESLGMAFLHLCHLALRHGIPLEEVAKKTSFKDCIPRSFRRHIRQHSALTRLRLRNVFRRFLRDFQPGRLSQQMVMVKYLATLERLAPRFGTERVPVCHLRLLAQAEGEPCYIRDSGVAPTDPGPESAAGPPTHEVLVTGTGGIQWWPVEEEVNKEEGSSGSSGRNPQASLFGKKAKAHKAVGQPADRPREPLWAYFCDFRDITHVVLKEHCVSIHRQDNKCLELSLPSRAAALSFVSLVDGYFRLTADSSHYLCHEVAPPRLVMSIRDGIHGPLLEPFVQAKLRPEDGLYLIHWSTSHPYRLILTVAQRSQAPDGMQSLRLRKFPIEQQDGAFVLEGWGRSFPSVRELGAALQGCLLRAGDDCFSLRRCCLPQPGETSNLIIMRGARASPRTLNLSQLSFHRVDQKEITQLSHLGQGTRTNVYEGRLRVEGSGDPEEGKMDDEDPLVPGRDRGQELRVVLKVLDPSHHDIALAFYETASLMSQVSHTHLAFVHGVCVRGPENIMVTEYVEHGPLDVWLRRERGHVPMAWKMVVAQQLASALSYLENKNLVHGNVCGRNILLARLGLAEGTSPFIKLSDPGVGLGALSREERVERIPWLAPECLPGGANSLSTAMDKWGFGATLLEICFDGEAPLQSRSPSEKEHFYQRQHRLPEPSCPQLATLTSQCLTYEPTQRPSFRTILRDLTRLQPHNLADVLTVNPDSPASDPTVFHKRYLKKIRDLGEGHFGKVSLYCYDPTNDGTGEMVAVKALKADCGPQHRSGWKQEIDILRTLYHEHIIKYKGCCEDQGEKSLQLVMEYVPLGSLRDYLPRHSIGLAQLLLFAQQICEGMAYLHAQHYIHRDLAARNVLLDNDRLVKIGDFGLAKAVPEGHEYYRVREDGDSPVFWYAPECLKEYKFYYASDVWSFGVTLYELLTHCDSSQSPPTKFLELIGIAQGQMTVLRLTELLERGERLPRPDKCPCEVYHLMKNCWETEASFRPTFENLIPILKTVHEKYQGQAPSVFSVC

| SMILES | remaining activity at 10 µM (382 unique human kinases [1]) | remaining activity at 10 µM (382 unique human kinases [2]) | remaining activity at 10 µM (382 unique human kinases [3]) | remaining activity at 10 µM (382 unique human kinases [4]) | remaining activity at 10 µM (382 unique human kinases [5]) | remaining activity at 10 µM (382 unique human kinases [6]) | remaining activity at 10 µM (382 unique human kinases [7]) | remaining activity at 10 µM (382 unique human kinases [8]) | remaining activity at 10 µM (382 unique human kinases [9]) | remaining activity at 10 µM (382 unique human kinases [10]; [12]) | remaining activity at 10 µM (382 unique human kinases [11]) | also measured |
| --- | --- | --- | --- | --- | --- | --- | --- | --- | --- | --- | --- | --- |
| CC(C)c1cc(-c2n[nH]c(=O)n2-c2ccc3c(ccn3C)c2)c(O)cc1O [Ganetespib (STA9090)] | 101% | 106% | 79.4% | 76.6% | 76.8% | 84.5% | – | – | – | – | – | – |
| CC(C)c1cc(-c2n[nH]c(=O)n2-c2ccc3c(ccn3C)c2)c(O)cc1O [Ganetespib] | – | – | – | – | – | – | 3.72% | 62.6% | 20% | 7.62% | 95.1% | remaining activity at 1 µM (382 unique human kinases [10]; compound 1 uM, read-out: % Enzyme Activity (relative to DMSO controls)): 30.6% |
| CCNC(=O)c1noc(-c2cc(C(C)C)c(O)cc2O)c1-c1ccc(CN2CCOCC2)cc1 [Luminespib] | – | – | – | – | – | – | 5.44% | 102% | 93.3% | 96.8% | 95.4% | % Enzyme Activity (relative to DMSO controls) (382 unique human kinases [7]): 4.48%; % Enzyme Activity (relative to DMSO controls) (382 unique human kinases [8]): 101.11%; % Enzyme Activity (relative to DMSO controls) (382 unique human kinases [9]): 91.42%; % Enzyme Activity (relative to DMSO controls) (382 unique human kinases [10]; compound 10 uM): 94.48%; % Enzyme Activity (relative to DMSO controls) (382 unique human kinases [11]): 95.18% |
| CCNC(=O)c1noc(-c2cc(C(C)C)c(O)cc2O)c1-c1ccc(CN2CCOCC2)cc1 [Luminespib (AUY-922)] | 104% | 122% | 98.6% | 102% | 80.5% | 94.4% | – | – | – | – | – | % Enzyme Activity (relative to DMSO controls) (382 unique human kinases [1]): 104.01%; % Enzyme Activity (relative to DMSO controls) (382 unique human kinases [2]): 120.79%; % Enzyme Activity (relative to DMSO controls) (382 unique human kinases [3]): 97.20%; % Enzyme Activity (relative to DMSO controls) (382 unique human kinases [4]): 100.31%; % Enzyme Activity (relative to DMSO controls) (382 unique human kinases [5]): 79.00%; % Enzyme Activity (relative to DMSO controls) (382 unique human kinases [6]): 94.03% |

Source: publication PMC8550792, “Evolution of kinase polypharmacology across HSP90 drug discovery” (Cell Chemical Biology, 2021)
